Among the data in patent US9505792B2, “Forms of cidofovir” (Johnson Matthey Public Limited Company, priority 2011, dated 2016) are OEL values, retold here.

A short description of the data set: Occupational exposure assessment (full monograph) of the final product. As to conditions: final crystalline cidofovir dihydrate product; remains within category band 5 (safebridge category 3). The source says: A full monograph for the final crystalline cidofovir dihydrate product (compound 9) has been completed and it was confirmed that, with an OEL of 0.6 μgm^−3, the product remains within category band 5 (safebridge category 3).

Structures are written as SMILES.

Molecule `Nc1ccn(C[C@@H](CO)OCP(=O)(O)O)c(=O)n1` [compound 9, cidofovir dihydrate] registered an OEL of 0.6 μgm^−3.
